Data from patent US5716971A, “Pyridine derivatives, their production and use” (Takeda Chemical Industries, Ltd., priority 1993, dated 1998).
Where two headings read alike, the source gives them in different places.

Experiments:
specimen of rat aorta [1] = assay: Vasorelaxation activity in a specimen of rat aorta: contraction caused by KCl; details: read-out: constriction inhibitory ratio
Protocol: (§1) Male Wister rats (10 to 13 week old were employed for the experiment. After dehematization, the aorta was excised and a ring specimen (5 mm length) was prepared. The specimen was suspended in a bath filled with oxygenated (95% O2 -5%CO2) Krebs solution (36° C.). The ring specimen was fixed at one end and the other end was connected to a transducer (Nippon Koden) for recording tension to determine the tension. After a stabilization period of one hour, TEA (30-45 mM) and BaCl2 (0.3 mM) were added to the bath to cause vasoconstriction. After the constriction had reached a steady state (after about 15 minutes), a test compound was added to the bath and its relaxation activity was measured.
Vasorelaxation activity in a specimen of rat aorta Effects on contraction caused by potassium chloride (KCl)
The same experiment was conducted as in Experiment 1, excepting the use of KCl ([…]) instead of TEA and BaCl2

specimen of rat aorta [2] = assay: Vasorelaxation activity in a specimen of rat aorta: contraction caused by TEA and BaCl2; details: TEA (30-45 mM) and BaCl2 (0.3 mM) contraction, read-out: constriction inhibitory ratio
Protocol: Vasorelaxation activity in a specimen of rat aorta Effects on contraction caused by tetraethylammonium chloride (TEA) and barium chloride (BaCl2)
as §1

anesthetized dogs = assay: Action of increasing coronary blood flow in anesthetized dogs (administration into coronary artery); assay type: in vivo, dog; details: injected into coronary artery, 30 ug/day, anesthetized Beagle dogs
Protocol: Action of increasing coronary blood flow in anesthetized dogs (Administration into coronary artery) Method: Beagle dogs (10 to 12 kg body weight) were anesthetized with pentobarbital and subjected to thoractomy under artificial respiration. A by-pass fitted with an electromagnetic flowmeter (Nippon Koden) was prepared between the left coronary artery and left carotid artery,and the volume of coronary blood flow was measured. […]
Maximal change rate against the value measured before the administration (% of basal flow) and the duration period [shown in terms of the time (T1/2) in which the activity is reduced to half] are shown in Table 67. As a result, it is apparent that the compounds of this invention show action of increasing coronary blood flow.

[3] = system: Spontaneously hypertensive rats; assay: Hypotensive activity in rats (Tail Cuff Method), oral; assay type: in vivo; details: Rattus norvegicus, SHR
Protocol: Hypotensive activity in rats (Tail Cuff Method)
Spontaneously hypertensive rats (SHR, male, 20 to 23 week old) were warmed up to 36° C. The blood pressure at the tail aorta was measured by the tail cuff method. The blood pressure was measured three times, i.e. before oral administration of the test compound, two hours after the administration and five hours after the administration. The test compound was orally administered in the state of a suspension in gum arabic.
Maximal, hypotensive effect against the blood pressure before the administration is shown as % pre. in Table 66. As a result, it is apparent that the compounds of this invention show hypotensive activity.

[4] = after 2 hours, read-out: Maximal hypotensive effect against blood pressure before administration (% pre.), after 2 hours
[5] = after 5 hours, read-out: Maximal hypotensive effect against blood pressure before administration (% pre.), after 5 hours

SMILES | inhibition at 1 µM (specimen of rat aorta [1]) [%] | inhibition at 3 µM (specimen of rat aorta [1]) [%] | inhibition at 1 µM (specimen of rat aorta [2]) [%] | inhibition at 3 µM (specimen of rat aorta [2]) [%] | duration (T1/2): time in which the activity is reduced to half (anesthetized dogs) [min] | inhibition in vivo at 10 mg/kg [3, 4] [%] | inhibition in vivo at 10 mg/kg [3, 5] [%] | inhibition in vivo at 3 mg/kg [3, 4] [%] | inhibition in vivo at 3 mg/kg [3, 5] [%] | inhibition at 10 µM (specimen of rat aorta [1]) [%] | inhibition at 10 µM (specimen of rat aorta [2]) [%] | inhibition in vivo at 1 mg/kg [3, 4] [%] | inhibition in vivo at 1 mg/kg [3, 5] [%]
CC(C)(C)O/N=C(/c1cc(Cl)c(F)cc1O)c1ncccc1O [Compound 36, (Z)-2-(5-chloro-4-fluoro-2-hydroxybenzoyl)-3-hydroxypyridine O-t-butyloxime] | 0 | 4 | 81 | 80 | 4.8 | 42 | 30 |  |  |  |  |  | 
CC(C)(C)O/N=C(/c1cc(Br)c(Cl)cc1O)c1cccc[n+]1[O-] [Compound 101, (Z)-2-(5-bromo-4-chloro-2-hydroxybenzoyl)pyridine N-oxide O-t-butyloxime] | 3 | 25 | 71 | 65 | 7.9 |  |  | 10 | 11 |  |  |  | 
Cc1cc(O)c(/C(=N/OC(C)(C)C)c2c(O)ccc[n+]2[O-])cc1Br [Compound 67, (Z)-2-(5-bromo-2-hydroxy-4-methylbenzoyl)-3-hydroxypyridine N-oxide O-t-butyloxime] | 0 | 0 | 32 | 89 | 8.9 | 28 | 35 |  |  | 0 | 100 |  | 
CC(C)(C)O/N=C(/c1cc(Cl)c(F)cc1O)c1c(O)ccc[n+]1[O-] [Compound 58, (Z)-2-(5-chloro-4-fluoro-2-hydroxybenzoyl)-3-hydroxypyridine N-oxide O-t-butyloxime] | 0 | 0 | 84 | 94 | 47.7 | 55 | 45 |  |  |  |  | 35 | 19
CC(C)(C)O/N=C(/c1cc(F)c(F)cc1O)c1c(O)ccc[n+]1[O-] [Compound 59, (Z)-2-(4,5-difluoro-2-hydroxybenzoyl)-3-hydroxypyridine N-oxide O-t-butyloxime] |  |  | 6 | 100 | 15.1 | 45 | 54 |  |  |  |  | 22 | 10
CC(C)(C)O/N=C(/c1cc(Br)ccc1O)c1c(O)ccc[n+]1[O-] [Compound 63, (Z)-2-(5-bromo-2-hydroxybenzoyl)-3-hydroxypyridine N-oxide O-t-butyloxime] | 0 | 0 | 13 | 61 | 2.4 | 42 | 54 |  |  | 0 | 100 |  | 
CC(C)(C)O/N=C(/c1cc(F)c(Cl)cc1O)c1c(O)ccc[n+]1[O-] [Compound 56, (Z)-2-(4-chloro-5-fluoro-2-hydroxybenzoyl)-3-hydroxypyridine N-oxide O-t-butyloxime] |  |  | 100 |  | 27.3 | 51 | 42 |  |  |  |  |  | 
Cc1cc(O)c(/C(=N/OC(C)(C)C)c2ncccc2O)cc1Br [Compound 61, (Z)-2-(5-bromo-2-hydroxy-4-methylbenzoyl)-3-hydroxypyridine O-t-butyloxime] | 4 | 7 | 54 | 100 | 2.0 |  |  |  |  |  |  |  | 
